The text below walks through data of US20180303874A1, “Compositions and Methods for the Prevention of Microbial Infections” (LANKENAU INSTITUTE FOR MEDICAL RESEARCH, priority 2011, published 2018).

In one experiment the test system is HSV. Conditions: co-incubated; cited from earlier work.
For another experiment, the system named is claudin-7. Kind of experiment: Western blot analysis of tight junctional protein claudin-7 in Caco-2 cells. The format is cell-based, human. Conditions: 50 or 100 μM zinc, one week, vs control. Here is the method:
(§1) Human gastrointestinal epithelial cells were allowed to grow to maximal density and re-fed with culture media at different zinc concentrations for pre-determined time points (0, 3, 6, 24 or 48 hours, or 7 days). Flasks were washed two times each with ice cold saline, then flash-frozen in an ethanol-dry ice bath, and stored at −80° C. until fractionation. At that time, flasks were quick-thawed and 2 ml of 4° C. Buffer A (20 mM Tris-HCl, pH 7.5, 0.25 M sucrose, 10 mM EGTA, 2 mM EDTA) with protease and phosphatase inhibitors (final concentrations: 0.8 μM aprotinin, 20 μM leupeptin, 50 μM bestatin, 1 mM AEBSF, 10 μM pepstatin) (Calbiochem) was added to each, cells were scraped into the buffer, the suspension mechanically disrupted and then sonicated for 60 seconds on ice and transferred to an ultracentrifuge tube. Tubes were centrifuged in a chilled Beckman 50TI rotor at 39,000 rpm for one hour at 4° C. […] The supernatant from this final spin was the “membrane fraction.” Total protein was measured using the BioRad DC™ Protein Assay Kit.
(§2) Samples of these fractions were analyzed by polyacrylamide gel electrophoresis using a Novex XCell SureLock™ Mini-Cell apparatus and a 4-20% gradient Novex Tris-Glycine, pre-cast, 10-well, 1.5 mm thick gel (Invitrogen). […]
(§3) Films were analyzed for protein expression level by measuring optical density units with a Personal Densitometer™ SI (Molecular Dynamics).
For orientation: In western blotting, separated proteins are transferred to a membrane and probed.

For the next experiment, the system named is claudin-2. Kind of experiment: Western blot analysis of tight junctional protein claudin-2 in Caco-2 cells. It is filed as cell-based, human. Conditions: 50 or 100 μM zinc, one week, vs control. On the procedure: as §1, §2, §3
A further experiment deals with Caco-2 cell sheets. Kind of experiment: Transepithelial electrophysiology of Caco-2 cell sheets. It is filed as cell-based, human. Conditions: vs control. Here is the method:
Cells were seeded at the density of 5×10^5 onto sterile Millipore Millicell polycarbonate (PCF) permeable supports (pore size 0.4 μm with a diameter of 30 mm) on Day 0. Cells were allowed to grow for 21-24 days prior to experiments (Hubatsch et al. (2007) Nat. Protoc., 2:2111-9). Three or four Millicell PCF units (2 ml/unit) were placed in a 100 mm sterile petri dish (15 ml/dish). Cells were fed bilaterally 3 times per week with control medium until at least Day 14 and switched to different zinc-supplemented media (Ctrl, 50 or 100 μM elemental zinc) for another week. […]
On the day of experiment, cells were re-fed in fresh culture medium and allowed to incubate at 37° C. for 2 hr prior to the actual experiment. Transepithelial voltage and transepithelial electrical resistance were measured as previously described (Skrovanek et al. (2007) Am. J. Physiol. Regul. Integr. Comp. Physiol., 293:R1046-55). In brief, using silver/silver chloride electrodes in series with 1M NaCl agar bridges, a 40 microamp externally applied current pulse was delivered across the cell layer and the resultant change in the voltage across the cell layer was measured using calomel electrodes in series with 1M NaCl/agar bridges and a Keithley® 197A auto-ranging digital multimeter. […]

With `CC(=O)[O-].CC(=O)[O-].[Zn+2]` [zinc acetate], the “inactivation of HSV” value with HSV is reported as “directly inactivate”.

As for `CC(O)C(=O)[O-].CC(O)C(=O)[O-].[Zn+2]` (centres unmarked) [zinc lactate], in the experiment with HSV, the “inactivation of HSV” value is recorded as “directly inactivate”. With `O=S(=O)([O-])[O-].[Zn+2]` [zinc sulfate], in the experiment with HSV, the “inactivation of HSV” value is on record as “directly inactivate”. As to `[Zn]` [zinc], the “expression of claudin-7” value in the experiment with claudin-7 is “reduction, albeit to a lesser extent than claudin-2”. In addition, in the experiment on claudin-2, the “expression of claudin-2” value is recorded as “significantly reduced”. The short circuit current result in the experiment with Caco-2 cell sheets (50 or 100 μM zinc, one week) was “comparable short circuit currents”. In addition, in the experiment on Caco-2 cell sheets (one-week zinc supplementation (50 or 100 μM)), the transepithelial electrical resistance entry was “significant increase”. Take zinc gluconate: the “inactivation of HSV” value in the experiment on HSV is given as “directly inactivate”.
